# In paper PMC7663263 (Molecules, 2020):
# Read-outs that look alike come from different tables or passages of the source.
# Tests used:
# RAW 264.7 macrophages = test: Cytotoxicity on RAW 264.7 macrophages; type: cell-based, murine; conditions: 48 h incubation; 2880 min; read-out: Cytotoxicity on RAW 264.7 Macrophages CC50 (µM) ± SD
# Procedure: (§1) Cytotoxicity was evaluated on RAW 264.7 macrophages that were maintained at 37 °C with 5% CO2 in Dulbecco’s Modified Eagle’s Medium (DMEM, Invitrogen, Toulouse, France) supplemented with 100 U/mL penicillin-streptomycin (Invitrogen) and 10% heat-inactivated fetal bovine serum, as previously described. Briefly, cells were plated in 96-well microplates at a density of 2 × 10^4 cells per well. After incubation for 24 h at 37 °C in 5% CO2, the medium was removed from each well and 100 µL of medium containing 2-fold serial dilutions of compounds was added to each well. After 48 h incubation at 37 °C in 5% CO2, 10 µL of 450 µM resazurin was added to each well and further incubated in the dark for 4 h. Cell viability was determined as described above. The cytotoxicity of the compounds was expressed as CC50.
# [1] = Cytotoxicity on RAW 264.7 macrophages; type: cell-based, murine; conditions: mouse, 48 h incubation, read-out: Cytotoxicity on RAW 264.7 Macrophages CC50 (µM) ± SD
# Procedure: as §1
# [2] = Cytotoxicity on human fetal lung fibroblast MRC-5; conditions: human
# Procedure: (§2) Toxicity in human fetal lung fibroblast (MRC-5) cell line and primary mouse macrophages (PMM) was assessed using a previously reported assay in 96-well microtiter plates. Tamoxifen and miltefosine were included as reference drugs (Table 10).
# (§3) For MRC5SV2 or PMM cells, the assays were performed in 96-well microtiter plates, each well containing 10 µL of compound dilution and 190 µL of cell inoculum (3 × 10^4 cells/mL) as reported. Cell growth was compared to untreated controls (100% growth) and assay-media controls (0% growth). After three-day incubation, cell viability was assessed fluorometrically by adding resazurin [50 µL/well of a stock solution in phosphate buffer (50 µg/mL)], incubating for 4 h and measuring fluorescence (ex 550 nm, em 590 nm). The results are expressed as percentage reduction in cell growth as compared to untreated control wells. […] Tamoxifen was included as the reference drug.
# S. mansoni TGR [3] = target: T1, S. mansoni TGR (Schistosoma mansoni, UniProt Q962Y6); test: biochemical
# T1 construct: made in house; host or cells: E. coli
# T1 sequence (Q962Y6 1-598): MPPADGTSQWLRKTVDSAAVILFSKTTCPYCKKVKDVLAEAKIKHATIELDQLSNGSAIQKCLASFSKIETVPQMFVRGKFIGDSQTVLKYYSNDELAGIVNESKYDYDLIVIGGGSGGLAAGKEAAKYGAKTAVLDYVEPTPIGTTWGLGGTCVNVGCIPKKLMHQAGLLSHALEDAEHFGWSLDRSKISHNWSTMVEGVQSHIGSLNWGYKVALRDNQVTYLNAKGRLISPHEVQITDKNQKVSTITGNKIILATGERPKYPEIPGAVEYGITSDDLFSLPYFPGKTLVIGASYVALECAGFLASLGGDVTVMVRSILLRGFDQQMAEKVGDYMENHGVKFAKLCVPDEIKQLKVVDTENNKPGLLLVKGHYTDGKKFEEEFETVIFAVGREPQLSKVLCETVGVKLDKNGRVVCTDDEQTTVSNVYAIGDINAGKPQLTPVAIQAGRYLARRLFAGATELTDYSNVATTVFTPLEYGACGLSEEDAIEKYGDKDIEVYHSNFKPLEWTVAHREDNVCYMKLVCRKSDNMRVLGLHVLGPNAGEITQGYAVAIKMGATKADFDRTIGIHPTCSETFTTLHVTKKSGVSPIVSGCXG
# Procedure: Enzymes were prepared in E. coli as described. Assays were performed at 25 °C in 0.1 M potassium phosphate (pH 7.4), 10 mM EDTA using 100 μM NADPH and 3 mM dithiobis(2-nitrobenzoic acid) (DTNB). […] The increase in A412 during the first 3 min was recorded upon DTNB addition. The reaction was done in triplicate.
# [4] = system: L. infantum MHOM/MA (BE)/67 amastigotes; test: Anti-leishmanial activity, L. infantum amastigotes in primary peritoneal mouse macrophages; type: cell-based, Leishmania infantum
# Procedure: Anti-leishmanial activity: L. infantum MHOM/MA (BE)/67 amastigotes were collected from the spleen of an infected donor hamster and used to infect primary peritoneal mouse macrophages grown in a 96-well plate. After 2 days outgrowth, 5 × 10^5 amastigotes were added to each well and incubated for 2 h at 37 °C. The compounds were subsequently added and the plates were further incubated for 5 days at 37 °C and 5% CO2. Parasite burdens (mean number of amastigotes/macrophage) were microscopically assessed on 500 cells after Giemsa staining and expressed as a percentage of the blank controls. Miltefosine was included as reference drug. The use of laboratory rodents was carried out in accordance to all mandatory guidelines (EU directives, including the Revised Directive 2010/63/EU on the Protection of Animals used for Scientific Purposes that came into force on 1 January 2013, and the declaration of Helsinki in its latest version) and was approved by the Ethical Committee of the University of Antwerp, Belgium [UA-ECD 2011–77 (17-02-2012 and UA-ECD 2015-90].
# [5] = 1–2 h after oral administration; cited from earlier work
# S. mansoni TGR [6] = target: T1, S. mansoni TGR; design: method as in PMID 17579510
# S. mansoni TGR [7] = target: T1, S. mansoni TGR; design: method as in PMID 17579510; remark: listed apart in the source
# S. mansoni TGR [8] = target: T1, S. mansoni TGR; design: method as in PMID 17579510; remark: listed apart in the source
# [9] = Cytotoxicity on primary mouse macrophages (PMM); conditions: mouse
# Procedure: as §2, §3
# Human GR = conditions: read-out: IC50 Human GR, substrate GSSG, cited from earlier work
# [10] = target: human thioredoxin reductase (TrxR); design: method as in PMID 9685351; conditions: cited from earlier work
# Human TrxR [11] = conditions: 3 mM DTNB, read-out: IC50 Human TrxR, substrate DTNB, cited from earlier work
# T. cruzi Tulahuen CL2 = test: Anti-Chagas activity, T. cruzi on MRC-5 cells; type: cell-based; conditions: Trypanosoma cruzi, TULAHUEN, MRC5, 168 h; amastigotes, MRC-5 host cells, 7 days; read-out: Trypanosoma cruzi IC50 (µM) ± SD
# Procedure: Anti-Chagas activity: T. cruzi Tulahuen CL2 (benznidazole-sensitive, LacZ-reporter strain) was maintained on MRC-5 cells in minimal essential medium (MEM) supplemented with […], 16.5 mM sodium hydrogen carbonate and 5% FCS. In the assay, 4 × 10^3 MRC-5 cells and 4 × 10^4 parasites were added to each well. After incubation at 37 °C for 7 days, parasite growth was assessed by adding the substrate chlorophenol red -D-galactopyranoside. The color reaction was read at 540 nm after 4 h and absorbance values were expressed as a percentage of the blank controls. Benznidazole was included as reference drug.
# Human TrxR [12] = conditions: 20 µM substrate, after 10 min enzyme-NADPH-gold complex preincubation, read-out: IC50 Human TrxR, substrate hTrxC72S, cited from earlier work
# [13] = system: T. b. brucei Squib-427 strain; test: Anti-trypanosomal activity, T. b. brucei trypomastigotes (resazurin); type: cell-based, Trypanosoma brucei brucei; conditions: Trypanosoma brucei, 72 h
# Procedure: (§4) Anti-trypanosomal activity: T. b. brucei Squib-427 strain (suramin-sensitive) and T. b. gambiense (ITMAP/1893) were cultured at 37 °C and 5% CO2 in HMI-9 medium supplemented with 10% FCS [90]. About 10^4 trypomastigotes/well were added to each well and parasite growth was assessed after 72 h at 37 °C by adding resazurin and reading at ex 550 nm, em 590 nm. Suramin was included as reference drug for T. b. brucei and pentamidine for T. b. gambiense.
# [14] = system: Leishmania donovani LV9 intramacrophage amastigotes; test: L. donovani LV9 intramacrophage amastigotes; type: cell-based; conditions: Leishmania donovani; read-out: Leishmania Donovani LV9 Intramacrophage Amastigotes IC50 (µm) ± SD
# Procedure: (§5) In vitro anti-leishmanial evaluation was perfomed on both axenic and intramacrophage L. donovani amastigotes as previously described. […] Briefly, compounds were distributed in 96-well plates using 2-fold dilutions in 100 µL PYG medium. A. castellanii trophozoites were added to each well at 5 × 10^4 amoeba/mL in 200 µL final volume. L. donovani axenic amastigotes were added to each well at 10^6 parasites/mL in 200 µL final volume. After 72 h incubation at 27 °C, 20 µL of 1 mM resazurin was added to each well and further incubated at 27 °C for 8 h for A. castellanii and for 24 h for L. donovani axenic amastigotes. In living cells, resazurin is reduced in resorufin. This conversion is monitored by measuring the absorbance at specific wavelengths of resorufin (570 nm) and resazurin (600 nm) using a microplate reader (Labsystems Multiskan MS, McLean, VA, USA). In this assay, the activity was expressed in IC50. Miltefosine and pentamidine were used as reference drugs. All experiments were performed in three independent experiments.
# [15] = system: Acanthamoeba castellanii ATCC 30010; test: Anti-acanthamoebal activity on A. castellanii trophozoites (resazurin); type: cell-based; conditions: ATCC30010, 72 h, read-out: Acanthamoeba castellanii ATCC 30010 IC50 (µM) ± SD
# Procedure: as §5
# [16] = system: Leishmania donovani LV9 axenic amastigotes; test: L. donovani LV9 axenic amastigotes (resazurin); type: cell-based; conditions: Leishmania donovani; read-out: Leishmania donovani LV9 Axenic Amastigotes IC50 (µM) ± SD
# Procedure: as §5
# [17] = system: T. b. gambiense (ITMAP/1893); test: Anti-trypanosomal activity, T. b. gambiense trypomastigotes (resazurin); type: cell-based, Trypanosoma brucei gambiense; conditions: Trypanosoma brucei, GAMBIENSE, 72 h, read-out: T. b. gambiense IC50 (µM) ± SD
# Procedure: as §4
structure (smiles),measurement,setting,value
CC[P](CC)(CC)=[Au][S][C@@H]1O[C@H](COC(C)=O)[C@@H](OC(C)=O)[C@H](OC(C)=O)[C@H]1OC(C)=O [Auranofin],CC50,RAW 264.7 macrophages,4.43 ± 0.08 µM
same,CC50 at 48 h,[1]; raw 264.7 macrophages,~4 µM
same,CC50 at 72 h,[2]; mrc-5 cells,520 nM
same,IC50,S. mansoni TGR [3],1.1 nM
same,IC50 versus CC50 in the assays with mouse macrophages,"[4]; L. infantum amastigotes, equal IC50 and CC50 values",non-specific activity
same,drug remaining in the plasma,[5],15–25%
same,plasma concentration,[5],10000 ng/mL
same,IC50,"S. mansoni TGR [6]; read-out: IC50 S. mansoni TGR, substrate HED + GSSG; 20 nM enzyme, 8 mM substrate; after 15 min preincubation; cited from earlier work",6 nM
same,IC50,"S. mansoni TGR [7]; read-out: IC50 S. mansoni TGR, substrate GSSG; 20 nM enzyme, 100 µM GSSG; after 15 min preincubation; cited from earlier work",9 nM
same,IC50,"S. mansoni TGR [8]; read-out: IC50 S. mansoni TGR, substrate DTNB; 20 nM enzyme, 3 mM DTNB; after 15 min preincubation; cited from earlier work",7 nM
same,CC50 at 72 h,[9]; primary macrophages,2000 nM
OC[C@H]1O[C@H]([S-])[C@H](O)[C@@H](O)[C@@H]1O.[Au+] [Aurothioglucose],IC50,"Human GR; 1.5 nM enzyme, 1 mM GSSG, steady state kinetic studies",> 100000 nM
same,Ki,[10],4 nM
same,IC50,"Human TrxR [11]; 2 nM enzyme, steady state kinetic studies",65 nM
same,IC50,"S. mansoni TGR [6]; 20 nM enzyme, 8 mM substrate; after 15 min preincubation; read-out: IC50 S. mansoni TGR, substrate HED + GSSG; cited from earlier work",400 nM
same,IC50,"S. mansoni TGR [7]; 20 nM enzyme, 100 µM GSSG; after 15 min preincubation; read-out: IC50 S. mansoni TGR, substrate GSSG; cited from earlier work",3000 nM
same,IC50,"S. mansoni TGR [8]; 20 nM enzyme, 3 mM DTNB; after 15 min preincubation; read-out: IC50 S. mansoni TGR, substrate DTNB; cited from earlier work",70 nM
"O=C(Cn1ccnc1[N+](=O)[O-])NCc1ccccc1 [Benznidazole, reference compound]",IC50,T. cruzi Tulahuen CL2,2.89 ± 0.94 µM
"[Cl][Au][PH]1(c2ccccc2)C(c2ccccn2)=CC=C1c1ccccn1 [GoPI, {1-phenyl-2,5-di(2-pyridyl)phosphole}AuCl]",IC50,"Human GR; 1.4-[…] enzyme, 100 µM GSSG, after 10 min preincubation",2 nM
same,IC50,"Human GR; […] enzyme, 100 µM GSSG, after 10 min preincubation",1 nM
same,IC50,"Human TrxR [11]; 3.7 nM enzyme, after 10 min preincubation",1 nM
same,IC50,"Human TrxR [11]; […] enzyme, after 10 min preincubation",0.8 nM
same,IC50,Human TrxR [12]; 24 nM enzyme,6.9 nM
same,IC50,Human TrxR [12]; 30 nM enzyme,7 nM
CCCCCCCCCCCCCCCCOP(=O)([O-])OCC[N+](C)(C)C [Miltefosine],IC50,[13],11400 nM
same,IC50,[14],4490 ± 1080 nM
same,CC50 at 48 h,[1]; RAW 264.7 macrophages,> 25 µM
same,IC50,[15],9.21 ± 2.04 µM
same,IC50,"[4]; Leishmania infantum, Macrophage, 120 h, amastigotes in primary peritoneal mouse macrophages, 5 days, read-out: Leishmania infantum IC50 (µM) ± SD",11.3 ± 2.88 µM
same,IC50,[16],1.28 ± 0.12 µM
same,CC50 at 3 days,[9],20000 nM
N=C(N)c1ccc(OCCCCCOc2ccc(C(=N)N)cc2)cc1 [Pentamidine],CC50 at 48 h,[1]; RAW 264.7 macrophages,> 25 µM
same,IC50,[15],1.39 ± 0.37 µM
same,IC50,[17],0.0011 ± 0.0001 µM
Cc1ccc(C(=O)Nc2ccc(S(=O)(=O)O)c3cc(S(=O)(=O)O)cc(S(=O)(=O)O)c23)cc1NC(=O)c1cccc(NC(=O)Nc2cccc(C(=O)Nc3cc(C(=O)Nc4ccc(S(=O)(=O)O)c5cc(S(=O)(=O)O)cc(S(=O)(=O)O)c45)ccc3C)c2)c1 [Suramin],IC50,[13],30 nM
CC/C(=C(\c1ccccc1)c1ccc(OCCN(C)C)cc1)c1ccccc1 [Tamoxifen],CC50 at 3 days,[2],10600 nM
